The values that follow come from article PMC8727733, “Improvement of glycine biosynthesis from one‐carbon compounds and ammonia catalyzed by the glycine cleavage system in vitro” (Engineering in Life Sciences, 2021).

For the test, the target named is T1, glycine cleavage system (GCS), L protein with P, T and H proteins (Escherichia coli, UniProt P0A9P0).
T1 construct: gene lpdA; printed WP records may differ from the MG1655 alleles; with Glycine dehydrogenase (decarboxylating); Aminomethyltransferase; Glycine cleavage system H protein
T1 sequence (P0A9P0 2-474): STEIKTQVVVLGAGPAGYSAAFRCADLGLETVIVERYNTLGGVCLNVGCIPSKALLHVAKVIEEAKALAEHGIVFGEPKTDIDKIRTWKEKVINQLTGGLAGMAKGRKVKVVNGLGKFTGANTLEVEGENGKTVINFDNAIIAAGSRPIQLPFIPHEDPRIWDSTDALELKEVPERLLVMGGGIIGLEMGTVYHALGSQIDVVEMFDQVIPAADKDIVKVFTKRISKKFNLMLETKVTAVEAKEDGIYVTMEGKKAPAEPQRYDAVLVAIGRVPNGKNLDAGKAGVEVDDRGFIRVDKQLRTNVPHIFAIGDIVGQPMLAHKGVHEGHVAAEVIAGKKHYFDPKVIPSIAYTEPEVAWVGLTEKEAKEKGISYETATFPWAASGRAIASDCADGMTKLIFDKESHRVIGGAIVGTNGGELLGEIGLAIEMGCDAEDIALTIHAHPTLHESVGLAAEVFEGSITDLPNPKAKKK
T1 sequence (P0A6T9 2-129 partner): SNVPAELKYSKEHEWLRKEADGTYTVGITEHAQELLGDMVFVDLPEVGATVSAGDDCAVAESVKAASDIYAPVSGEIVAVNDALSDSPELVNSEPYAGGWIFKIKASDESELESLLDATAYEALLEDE
Nature of the test: glycine-dependent NADH formation, spectrophotometric, reconstituted GCS. It counts as biochemical. The following applies: 5 mM NAD+, 50 mM glycine, 0.5 mM THF, 20 mM DTT, 25 uM PLP, 50 mM Tris-HCl pH 7.5, 37 C; overall glycine cleavage.

For the compound `NC(=O)c1ccc[n+]([C@@H]2O[C@H](COP(=O)(O)OP(=O)(O)OC[C@H]3O[C@@H](n4cnc5c(N)ncnc54)[C@H](O)[C@@H]3O)[C@@H](O)[C@H]2O)c1` [NAD+], the “glycine-dependent NADH formation, spectrophotometric, reconstituted GCS” value is “measuring glycine‐dependent NADH formation”.
